Assay results reported in PubChem BioAssay (NCI).
“And” between values parts separate entries of the source, which are not always exact repeats. Equal entries are not always repeated.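 All cell lines were grown in 96-well plates and treated with compound for 48 hours. The concentration for 50% growth inhibition is given as GI50. Definition used: TGI = concentration required for complete inhibition of growth.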

Columns and labels:
Test in all cases: inhibition of tumour cell growth, NCI panel, 48 h
SW-620 colon = test system: SW-620 colon
SNB-19 CNS = test system: SNB-19 CNS
SK-OV-3 ovarian = test system: SK-OV-3 ovarian
OVCAR-3 ovarian = test system: OVCAR-3 ovarian
UACC-62 melanoma = test system: UACC-62 melanoma
MDA-MB-231 breast = test system: MDA-MB-231 breast
BT-549 breast = test system: BT-549 breast
KM12 colon = test system: KM12 colon
HCT-116 colon = test system: HCT-116 colon
A498 renal = test system: A498 renal
SK-MEL-2 melanoma = test system: SK-MEL-2 melanoma
SR leukemia = test system: SR leukemia
NCI-H460 lung = test system: NCI-H460 lung
SK-MEL-5 melanoma = test system: SK-MEL-5 melanoma
T-47D breast = test system: T-47D breast
HL-60(TB) leukemia = test system: HL-60(TB) leukemia
HOP-92 NSCLC = test system: HOP-92 NSCLC
COLO 205 colon = test system: COLO 205 colon
HS 578T breast = test system: HS 578T breast
786-0 renal = test system: 786-0 renal
SNB-75 CNS = test system: SNB-75 CNS
NCI-H226 lung = test system: NCI-H226 lung
OVCAR-4 ovarian = test system: OVCAR-4 ovarian
DU-145 prostate = test system: DU-145 prostate
LOX IMVI melanoma = test system: LOX IMVI melanoma
A549 NSCLC = test system: A549 NSCLC
RPMI-8226 leukemia = test system: RPMI-8226 leukemia
RXF 393 renal = test system: RXF 393 renal
HCC-2998 colon = test system: HCC-2998 colon
HCT-15 colon = test system: HCT-15 colon
OVCAR-8 ovarian = test system: OVCAR-8 ovarian
K-562 leukemia = test system: K-562 leukemia
EKVX NSCLC = test system: EKVX NSCLC
CCRF-CEM leukemia = test system: CCRF-CEM leukemia
MCF7 breast = test system: MCF7 breast
CAKI-1 renal = test system: CAKI-1 renal
IGROV1 ovarian = test system: IGROV1 ovarian
ACHN renal = test system: ACHN renal
SF-539 CNS = test system: SF-539 CNS
UO-31 renal = test system: UO-31 renal
SN12C renal = test system: SN12C renal
SF-268 CNS = test system: SF-268 CNS
OVCAR-5 ovarian = test system: OVCAR-5 ovarian
HT29 colon = test system: HT29 colon
UACC-257 melanoma = test system: UACC-257 melanoma
PC-3 prostate = test system: PC-3 prostate
TK-10 renal = test system: TK-10 renal
M14 melanoma = test system: M14 melanoma
SF-295 CNS = test system: SF-295 CNS
SK-MEL-28 melanoma = test system: SK-MEL-28 melanoma
NCI/ADR-RES ovarian = test system: NCI/ADR-RES ovarian
NCI-H522 lung = test system: NCI-H522 lung
NCI-H23 lung = test system: NCI-H23 lung
HOP-62 NSCLC = test system: HOP-62 NSCLC
MDA-MB-435 = test system: MDA-MB-435
U251 CNS = test system: U251 CNS
MOLT-4 leukemia = test system: MOLT-4 leukemia

Structure (SMILES): O=C(O)c1c(Cl)c(Cl)c(Cl)c(Cl)c1-c1c2cc(I)c(=O)c(I)c-2oc2c(I)c(O)c(I)cc12
- GI50 (SW-620 colon): 74.4 µM and 37.6 µM
- TGI (SW-620 colon): 79.1 µM
- GI50 (SNB-19 CNS): 38.2 µM and 28.6 µM
- TGI (SNB-19 CNS): 63.8 µM
- GI50 (SK-OV-3 ovarian): 32.4 µM
- TGI (SK-OV-3 ovarian): 78.6 µM
- GI50 (OVCAR-3 ovarian): 32.1 µM and 33 µM
- TGI (OVCAR-3 ovarian): 72.1 µM
- GI50 (UACC-62 melanoma): 18.6 µM and 31.6 µM
- TGI (UACC-62 melanoma): 41.3 µM and 68.6 µM
- GI50 (MDA-MB-231 breast): 22.5 µM and 26.7 µM
- TGI (MDA-MB-231 breast): 82.8 µM and 75.5 µM
- GI50 (BT-549 breast): 26.9 µM and 35.9 µM
- TGI (BT-549 breast): 82.6 µM and 83.2 µM
- GI50 (KM12 colon): 53.6 µM
- TGI (KM12 colon): 182 µM
- GI50 (HCT-116 colon): 45.4 µM and 37.2 µM
- TGI (HCT-116 colon): 81.5 µM
- GI50 (A498 renal): 29.5 µM and 26.1 µM
- TGI (A498 renal): 64.2 µM
- GI50 (SK-MEL-2 melanoma): 81.4 µM and 37 µM
- TGI (SK-MEL-2 melanoma): 78.8 µM
- GI50 (SR leukemia): 39.1 µM and 31.6 µM
- TGI (SR leukemia): 87.6 µM
- GI50 (NCI-H460 lung): 58.8 µM
- TGI (NCI-H460 lung): > 200 µM
- GI50 (SK-MEL-5 melanoma): 36.3 µM
- TGI (SK-MEL-5 melanoma): 68.9 µM
- GI50 (T-47D breast): 29.4 µM
- TGI (T-47D breast): 78.2 µM
- GI50 (HL-60(TB) leukemia): 73 µM and 42.9 µM
- TGI (HL-60(TB) leukemia): 85.2 µM
- GI50 (HOP-92 NSCLC): 19.3 µM and 29.7 µM
- TGI (HOP-92 NSCLC): 68 µM and 71.6 µM
- GI50 (COLO 205 colon): 45.8 µM
- TGI (COLO 205 colon): 159 µM
- GI50 (HS 578T breast): 35.7 µM and 33 µM
- TGI (HS 578T breast): 83.7 µM
- GI50 (786-0 renal): 46.5 µM
- TGI (786-0 renal): 123 µM
- GI50 (SNB-75 CNS): 32.1 µM and 34 µM
- TGI (SNB-75 CNS): 79.8 µM
- GI50 (NCI-H226 lung): 79.7 µM and 38.8 µM
- TGI (NCI-H226 lung): 90.9 µM
- GI50 (OVCAR-4 ovarian): 93.1 µM and 43.9 µM
- TGI (OVCAR-4 ovarian): 105 µM
- GI50 (DU-145 prostate): 37.2 µM
- TGI (DU-145 prostate): 94.3 µM
- GI50 (LOX IMVI melanoma): 19 µM and 34.7 µM
- TGI (LOX IMVI melanoma): 43.1 µM and 67.9 µM
- GI50 (A549 NSCLC): 177 µM
- TGI (A549 NSCLC): > 200 µM
- GI50 (RPMI-8226 leukemia): 122 µM
- TGI (RPMI-8226 leukemia): > 200 µM
- GI50 (RXF 393 renal): 27.5 µM and 15 µM
- TGI (RXF 393 renal): 45.4 µM
- GI50 (HCC-2998 colon): 36.5 µM
- TGI (HCC-2998 colon): 70.8 µM
- GI50 (HCT-15 colon): 55.7 µM
- TGI (HCT-15 colon): 162 µM
- GI50 (OVCAR-8 ovarian): 58.2 µM and 47.4 µM
- TGI (OVCAR-8 ovarian): 115 µM
- GI50 (K-562 leukemia): 39.2 µM and 46 µM
- TGI (K-562 leukemia): 116 µM
- GI50 (EKVX NSCLC): 63.5 µM
- TGI (EKVX NSCLC): > 200 µM
- GI50 (CCRF-CEM leukemia): 30.2 µM and 41.9 µM
- TGI (CCRF-CEM leukemia): 95.7 µM
- GI50 (MCF7 breast): 83.5 µM
- TGI (MCF7 breast): > 200 µM
- GI50 (CAKI-1 renal): 39 µM
- TGI (CAKI-1 renal): 86.7 µM
- GI50 (IGROV1 ovarian): 88.2 µM and 34.9 µM
- TGI (IGROV1 ovarian): 83.8 µM
- GI50 (ACHN renal): 54.8 µM
- TGI (ACHN renal): > 200 µM
- GI50 (SF-539 CNS): 32.7 µM and 34.6 µM
- TGI (SF-539 CNS): 89.7 µM
- GI50 (UO-31 renal): 43.5 µM
- TGI (UO-31 renal): 107 µM
- GI50 (SN12C renal): 75.5 µM and 32.6 µM
- TGI (SN12C renal): 103 µM
- GI50 (SF-268 CNS): 41.3 µM and 36.8 µM
- TGI (SF-268 CNS): 81.2 µM
- GI50 (OVCAR-5 ovarian): 41.9 µM
- TGI (OVCAR-5 ovarian): 163 µM
- GI50 (HT29 colon): 52.6 µM
- TGI (HT29 colon): 154 µM
- GI50 (UACC-257 melanoma): 53.5 µM
- TGI (UACC-257 melanoma): 163 µM
- GI50 (PC-3 prostate): 39.8 µM and 42.3 µM
- TGI (PC-3 prostate): 89.3 µM
- GI50 (TK-10 renal): 59 µM
- TGI (TK-10 renal): > 200 µM
- GI50 (M14 melanoma): 58.7 µM
- TGI (M14 melanoma): > 200 µM
- GI50 (SF-295 CNS): 38.1 µM
- TGI (SF-295 CNS): 78.7 µM
- GI50 (SK-MEL-28 melanoma): 55.9 µM and 32.9 µM
- TGI (SK-MEL-28 melanoma): 73 µM
- GI50 (NCI/ADR-RES ovarian): > 200 µM
- TGI (NCI/ADR-RES ovarian): > 200 µM
- GI50 (NCI-H522 lung): 26.6 µM and 39.4 µM
- TGI (NCI-H522 lung): 59.9 µM and 83.2 µM
- GI50 (NCI-H23 lung): 47 µM
- TGI (NCI-H23 lung): 125 µM
- GI50 (HOP-62 NSCLC): 80.7 µM and 31 µM
- TGI (HOP-62 NSCLC): 87.4 µM
- GI50 (MDA-MB-435): 62.9 µM and 41.4 µM
- TGI (MDA-MB-435): 93 µM
- GI50 (U251 CNS): 26.3 µM and 35.1 µM
- TGI (U251 CNS): 83.9 µM
- GI50 (MOLT-4 leukemia): 40.8 µM
- TGI (MOLT-4 leukemia): 86.2 µM
